Laboratory results taken from publication PMC12132917, “Carborane‐Based Analogs of Celecoxib and Flurbiprofen, their COX Inhibition Potential, and COX Selectivity Index” (Chemmedchem, 2025).
Where two headings read alike, the source gives them in different places. Marks after values point to notes of the source that are not given here.

Key:
recombinant human COX‐2 = target: T1, recombinant human COX‐2 (Homo sapiens, UniProt P35354); type: biochemical; settings: for IC50: read-out: IC50 [μM] (95% CI) COX‐2
T1 construct: purchased Cayman Chemical Company
T1 sequence (P35354 18-604): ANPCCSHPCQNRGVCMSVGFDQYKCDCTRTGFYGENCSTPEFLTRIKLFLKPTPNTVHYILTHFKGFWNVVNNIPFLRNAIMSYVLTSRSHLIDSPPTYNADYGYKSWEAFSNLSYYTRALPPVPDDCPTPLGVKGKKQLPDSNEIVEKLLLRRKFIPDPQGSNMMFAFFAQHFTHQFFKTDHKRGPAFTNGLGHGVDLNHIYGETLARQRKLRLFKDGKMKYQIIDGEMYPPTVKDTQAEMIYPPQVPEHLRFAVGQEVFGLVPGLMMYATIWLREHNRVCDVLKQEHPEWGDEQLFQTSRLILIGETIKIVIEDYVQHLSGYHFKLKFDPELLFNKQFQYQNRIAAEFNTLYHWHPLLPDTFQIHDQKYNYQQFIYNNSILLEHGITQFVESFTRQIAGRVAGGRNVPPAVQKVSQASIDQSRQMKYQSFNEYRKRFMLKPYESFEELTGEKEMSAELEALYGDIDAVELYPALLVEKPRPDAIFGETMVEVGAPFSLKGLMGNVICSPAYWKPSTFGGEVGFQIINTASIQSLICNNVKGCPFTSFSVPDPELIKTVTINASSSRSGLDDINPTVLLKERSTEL
Excerpt: (§1) For the cyclooxygenase assays, the fluorescence‐based COX assay “COX Fluorescent Inhibitor Screening Assay Kit” (Cayman Chemical Company, Ann Arbor, MI, USA) was used according to the manufacturer's instructions. […] All concentrations have been tested at least in duplicate.

ovine COX‐1 = target: T2, ovine COX‐1 (Ovis aries, UniProt P05979); assay: COX Fluorescent Inhibitor Screening Assay Kit (Cayman), COX-1 inhibition; type: biochemical; settings: for IC50: read-out: IC50 [μM] (95% CI) COX‐1, absolute IC50
T2 construct: purchased Cayman Chemical Company
T2 sequence (P05979 25-600): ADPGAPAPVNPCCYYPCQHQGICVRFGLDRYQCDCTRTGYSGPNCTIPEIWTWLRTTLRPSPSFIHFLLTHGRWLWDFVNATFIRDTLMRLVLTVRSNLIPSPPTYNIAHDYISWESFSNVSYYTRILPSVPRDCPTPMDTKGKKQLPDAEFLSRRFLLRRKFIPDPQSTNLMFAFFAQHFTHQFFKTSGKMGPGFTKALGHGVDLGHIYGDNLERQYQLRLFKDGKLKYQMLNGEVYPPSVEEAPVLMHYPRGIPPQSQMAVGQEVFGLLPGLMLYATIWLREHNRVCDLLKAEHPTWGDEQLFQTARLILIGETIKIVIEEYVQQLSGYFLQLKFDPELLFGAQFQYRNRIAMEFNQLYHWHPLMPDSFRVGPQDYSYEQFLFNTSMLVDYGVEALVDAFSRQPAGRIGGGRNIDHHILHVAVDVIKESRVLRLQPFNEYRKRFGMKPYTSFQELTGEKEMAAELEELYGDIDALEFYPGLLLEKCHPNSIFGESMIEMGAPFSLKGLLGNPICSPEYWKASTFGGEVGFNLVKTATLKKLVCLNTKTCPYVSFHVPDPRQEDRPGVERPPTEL
Excerpt: as §1

[1] = Stability in DMSO/water (1:1, v/v) by HPLC-UV-MS or analytical HPLC; type: physicochemical; settings: DMSO/H2O (1:1, v/v), RP-HPLC
Method: The stability of compounds 6, 7, 9, 10, 13a,b, and 14a,b in aqueous solution was studied by HPLC‐UV‐MS or analytical HPLC measurements as well (see Supporting Information for details, “4 HPLC Stability Determination of Compounds 6, 7, 9, 10, 13a, 13b, 14a, 14b”). All compounds except 13a were stable for at least one day (Supporting Information, section 4 ).
The stability was evaluated for all compounds in a mixture of DMSO, dried over molecular sieve, and LC‐MS grade water (1:1, v/v) with the same HPLC‐UV‐MS systems as described under “Purity Determination”. The column, eluent system, flow and MS tool were operated in the same way. For the stability determination, a few milligrams of each compound were dissolved in 1 mL DMSO. To dissolve the compounds, they were vortexed and heated up if necessary. The stock solution was further diluted with water. For that, 50–100 μL of the stock solution was transferred into a vial and the same amount of LC‐MS grade water was added. The two solvents were mixed thoroughly, and the measurement with HPLC‐UV‐MS was directly started. Additionally, measurements were performed in a varying time frame, from 15 or 20 min to 1 day. Usually, the injection volume was 10 μL, and before the measurement of the samples, a blank run with only DMSO/LC‐MS grade water (1:1, v/v) was performed. […] For the latter compounds, the aforementioned system (Agilent 1200 system) and the following gradient was used: 0–3 min 45% eluent B, 3–28 min 45%–95% eluent B, 28–34 min 95% eluent B, 34–35 min 95%–45% eluent B, then 35–40 min 45% eluent B, flow: 0.75 mL min^−1.
4 Stability Determination of Compounds 6, 7, 9, 10, 13a, 13b, 14a, 14b by HPLC A few milligrams of each compound have been dissolved in 1 mL DMSO, which was stored over molecular sieve.
50-100 µL of the DMSO solution have been transferred into a separate vial together with the same amount of LC-MS grade water. The mixture was measured directly after water addition and in time intervals from 20 min to 1 d by HPLC-UV-MS or analytical HPLC measurements. All compounds were stable for at least one day except for […]
rather for its nido-carborane analog, which was anyway the most prominent side product, no further stability measurements have been performed.
Figure S74. RP-HPLC chromatograms of blank (DMSO/H2O, black and green) and compound 6, retention time: 10.5 min, purity after 1 d: >98%.
Figure S75. RP-HPLC chromatograms of blank (DMSO/H2O, blue and pink) and compound 7, retention time: 8.3 min, purity after 1 d: >96%. […]

[2] = 100 μM, n = 2, n.i. = no inhibition (%‐inhibition < 5 %)
[3] = Inhibition at 98 μM instead of 100 μM, n = 2

Substance | SI = IC50(COX‐1)/IC50(COX‐2) (recombinant human COX‐2) | %‐inhibition at 100 [μM] (n = 2) COX‐2 (recombinant human COX‐2; 100 µM) [%] | %‐inhibition at 100 [μM] (n = 2) COX‐1 (ovine COX‐1; n = 2) [%] | %‐inhibition at 100 [μM] (n = 2) COX‐2 (recombinant human COX‐2; [2]) [%] | IC50 (recombinant human COX‐2; absolute IC50) [µM] | SI = IC50(COX‐1)/IC50(COX‐2) (recombinant human COX‐2; selectivity index) | purity after 1 d [1] [%] | IC50 (ovine COX‐1) [µM] | IC50 [μM] (95% CI) COX‐2 (recombinant human COX‐2; absolute IC50) | %‐inhibition (n = 2) COX‐2 (recombinant human COX‐2; [3]) | %‐inhibition (n = 2) COX‐1 (ovine COX‐1; [3])
Cesium (R/S)‐2‐[2‐fluoro‐(1,1'‐biphenyl)‐4‐yl]‐N‐(7,8‐nido‐dicarbadodecahydroundecaborate(−1))‐ethylpropanamide [Compound 14b] | 2.7 | 80 | 72 | – | – | – | – | – | – | – | –
Cesium (R/S)‐2‐[2‐fluoro‐(1,1′‐biphenyl)‐4‐yl]‐N‐(7,8‐nido‐dicarbadodecahydroundecaborate(−1))‐methylpropanamide [Compound 14a] | 1.9 | 91 | 94 | – | – | – | – | – | – | – | –
Cesium N‐[3‐(7,8‐nido‐dicarbadodecahydroundecaborate(−1))propyl]‐4‐[5‐(p‐tolyl)‐3‐(trifluoromethyl)‐1H‐pyrazol‐1‐yl]benzenesulfonamide [Compound 7] | – | – | 94 | 100 | 8.75 | 1.28 | > 96 | 11.2 | – | – | –
Di‐cesium N,N‐bis[3‐(7,8‐nido‐dicarbadodecahydroundecaborate(−1))propyl]‐4‐[5‐(p‐tolyl)‐3‐(trifluoromethyl)‐1H‐pyrazol‐1‐yl]benzenesulfonamide [Compound 10] | – | – | 103 | 103 | 0.34 | 10.3 | > 99 | 3.49 | sub‐μM range | – | –
N,N‐Bis[3‐(1,2‐closo‐dicarbadodecaborane)propyl]‐4‐[5‐(p‐tolyl)‐3‐(trifluoromethyl)‐1H‐pyrazol‐1‐yl]benzenesulfonamide [Compound 9] | – | – | – | – | – | – | > 99 | > 320 | – | – | –
N‐[3‐(1,2‐closo‐dicarbadodecaborane)propyl]‐4‐[5‐(p‐tolyl)‐3‐(trifluoromethyl)‐1H‐pyrazol‐1‐yl]benzenesulfonamide [Compound 6] | – | – | ≤ 55 | ≤ 55 | 120 | – | > 98 | – | – | 54 ^b) % | 9 ^b) %
